Assay results reported in the NIST ThermoML archive (doi:10.1016/j.jct.2006.05.004).

Columns and labels:
[1] = excess molar enthalpy (molar enthalpy of mixing); xn = mol fraction of the nth substance listed; conditions: 298.15 K, 101 kPa, Liquid
[2] = xn = mol fraction of the nth substance listed; conditions: 298.15 K, 101 kPa, Liquid

BrCCCCCBr [1,5-dibromopentane] + CCC(=O)OC
Conditions | excess molar enthalpy [kJ/mol] | mass density [kg/m3]
[1], x2 = 0.0808 | 0.118 | –
[1], x2 = 0.1674 | 0.191 | –
[1], x2 = 0.2542 | 0.247 | –
[1], x2 = 0.3326 | 0.275 | –
[1], x2 = 0.4065 | 0.284 | –
[1], x2 = 0.4708 | 0.279 | –
[1], x2 = 0.4974 | 0.272 | –
[1], x2 = 0.5293 | 0.263 | –
[1], x2 = 0.5381 | 0.26 | –
[1], x2 = 0.5791 | 0.24 | –
[1], x2 = 0.584 | 0.235 | –
[1], x2 = 0.6329 | 0.213 | –
[1], x2 = 0.6845 | 0.181 | –
[1], x2 = 0.7383 | 0.153 | –
[1], x2 = 0.7938 | 0.119 | –
[1], x2 = 0.8494 | 0.0847 | –
[1], x2 = 0.9053 | 0.0468 | –
[1], x2 = 0.955 | 0.0218 | –
[2], x2 = 0.0841 | – | 1644.47
[2], x2 = 0.1537 | – | 1602.6
[2], x2 = 0.1671 | – | 1594.29
[2], x2 = 0.2971 | – | 1510.79
[2], x2 = 0.3661 | – | 1463.62
[2], x2 = 0.4312 | – | 1417.3
[2], x2 = 0.4903 | – | 1373.47
[2], x2 = 0.609 | – | 1280.2
[2], x2 = 0.6628 | – | 1235.27
[2], x2 = 0.716 | – | 1189.3
[2], x2 = 0.8143 | – | 1099.41
[2], x2 = 0.864 | – | 1051.37
[2], x2 = 0.9561 | – | 957.37

BrCCCBr [1,3-dibromopropane] + CCC(=O)OC
Conditions | excess molar enthalpy [kJ/mol] | mass density [kg/m3]
[1], x2 = 0.0646 | 0.0699 | –
[1], x2 = 0.1354 | 0.114 | –
[1], x2 = 0.2107 | 0.142 | –
[1], x2 = 0.2845 | 0.155 | –
[1], x2 = 0.3517 | 0.153 | –
[1], x2 = 0.4137 | 0.141 | –
[1], x2 = 0.4627 | 0.125 | –
[1], x2 = 0.4703 | 0.123 | –
[1], x2 = 0.5077 | 0.111 | –
[1], x2 = 0.5202 | 0.103 | –
[1], x2 = 0.5574 | 0.0929 | –
[1], x2 = 0.566 | 0.0847 | –
[1], x2 = 0.6073 | 0.0653 | –
[1], x2 = 0.6129 | 0.0576 | –
[1], x2 = 0.6726 | 0.0311 | –
[1], x2 = 0.7385 | 0.0021 | –
[1], x2 = 0.8065 | -0.0135 | –
[1], x2 = 0.873 | -0.0147 | –
[1], x2 = 0.9388 | -0.009 | –
[2], x2 = 0.059 | – | 1909.4
[2], x2 = 0.1261 | – | 1841.06
[2], x2 = 0.1889 | – | 1776.8
[2], x2 = 0.243 | – | 1720.78
[2], x2 = 0.3657 | – | 1593.37
[2], x2 = 0.4328 | – | 1523.29
[2], x2 = 0.4901 | – | 1462.96
[2], x2 = 0.5464 | – | 1403.57
[2], x2 = 0.6165 | – | 1328.98
[2], x2 = 0.7214 | – | 1216.43
[2], x2 = 0.7712 | – | 1162.65
[2], x2 = 0.8235 | – | 1105.81
[2], x2 = 0.8863 | – | 1037.06
[2], x2 = 0.9375 | – | 980.57

BrCCCCBr [1,4-dibromobutane] + CCC(=O)OC
Conditions | excess molar enthalpy [kJ/mol] | mass density [kg/m3]
[1], x2 = 0.074 | 0.0916 | –
[1], x2 = 0.1513 | 0.153 | –
[1], x2 = 0.2294 | 0.192 | –
[1], x2 = 0.305 | 0.207 | –
[1], x2 = 0.3744 | 0.207 | –
[1], x2 = 0.4375 | 0.196 | –
[1], x2 = 0.4948 | 0.179 | –
[1], x2 = 0.546 | 0.158 | –
[1], x2 = 0.5911 | 0.137 | –
[1], x2 = 0.6302 | 0.115 | –
[1], x2 = 0.6539 | 0.103 | –
[1], x2 = 0.665 | 0.102 | –
[1], x2 = 0.6965 | 0.0757 | –
[1], x2 = 0.712 | 0.067 | –
[1], x2 = 0.7721 | 0.0351 | –
[1], x2 = 0.8331 | 0.0178 | –
[1], x2 = 0.8921 | 0.0095 | –
[1], x2 = 0.9477 | 0.004 | –
[2], x2 = 0.0733 | – | 1763.63
[2], x2 = 0.1392 | – | 1712.4
[2], x2 = 0.2065 | – | 1658.81
[2], x2 = 0.2725 | – | 1604.96
[2], x2 = 0.3378 | – | 1550.31
[2], x2 = 0.3974 | – | 1499.32
[2], x2 = 0.4596 | – | 1444.8
[2], x2 = 0.5225 | – | 1388.41
[2], x2 = 0.638 | – | 1281.23
[2], x2 = 0.6944 | – | 1227.08
[2], x2 = 0.7466 | – | 1175.87
[2], x2 = 0.7998 | – | 1122.53
[2], x2 = 0.8489 | – | 1072.14
[2], x2 = 0.8998 | – | 1018.87
[2], x2 = 0.9505 | – | 964.61

BrCCCCCBr [1,5-dibromopentane] + CCCC(=O)OC
Conditions | excess molar enthalpy [kJ/mol] | mass density [kg/m3]
[1], x2 = 0.0788 | 0.0627 | –
[1], x2 = 0.1742 | 0.106 | –
[1], x2 = 0.2762 | 0.136 | –
[1], x2 = 0.374 | 0.143 | –
[1], x2 = 0.461 | 0.129 | –
[1], x2 = 0.5359 | 0.104 | –
[1], x2 = 0.5693 | 0.0895 | –
[1], x2 = 0.6313 | 0.0637 | –
[1], x2 = 0.7089 | 0.0389 | –
[1], x2 = 0.7917 | 0.0215 | –
[1], x2 = 0.8725 | 0.0108 | –
[1], x2 = 0.946 | 0.0055 | –
[2], x2 = 0.0754 | – | 1642.8
[2], x2 = 0.1463 | – | 1593.12
[2], x2 = 0.2087 | – | 1548.48
[2], x2 = 0.2699 | – | 1503.86
[2], x2 = 0.3456 | – | 1447.37
[2], x2 = 0.454 | – | 1363.99
[2], x2 = 0.573 | – | 1268.9
[2], x2 = 0.6279 | – | 1223.66
[2], x2 = 0.6902 | – | 1171.2
[2], x2 = 0.7398 | – | 1128.65
[2], x2 = 0.7971 | – | 1078.54
[2], x2 = 0.8961 | – | 989.47
[2], x2 = 0.9526 | – | 937.22
